In patent publication US8821927B2, “Pharmaceutical composition” (SmithKline Beecham (Cork) Limited, priority 2005, dated 2014):

Experiment: solubility in aqueous media
Type: physicochemical
Details: over the physiologically relevant pH range
From the text: Of particular interest is N-{3-Chloro-4-[(3-fluorobenzyl)oxy]phenyl}-6-[5-({[2-(methanesulphonyl)ethyl]amino}methyl)-2-furyl]-4-quinazolinamine ditosylate monohydrate.

- solubility in aqueous media: poorly soluble
Structure (SMILES): CS(=O)(=O)CCNCc1ccc(-c2ccc3ncnc(Nc4ccc(OCc5cccc(F)c5)c(Cl)c4)c3c2)o1 [GW572016, N-{3-Chloro-4-[(3-fluorobenzyl)oxy]phenyl}-6-[5-({[2-(methanesulphonyl)ethyl]amino}methyl)-2-furyl]-4-quinazolinamine]
